Where two headings read alike, the source gives them in different places.
Key:
[1] = Dynamic vapor sorption (DVS), isothermal absorption analysis; assay type: physicochemical
Experimental: In the present invention, according to the common knowledge in the art, the amount of water absorption obtained from the dynamic vapor sorption (DVS) pattern is expressed in percentage by weight.
The isothermal absorption analysis (DVS) data was collected from TA Instruments Q5000 TGA. The software for instrument control was Thermal Advantage and software for analysis was Universal Analysis. 1-10 mg of the sample was generally placed in a platinum crucible, and the weight change of the sample during the relative humidity changing from 20% to 80% was recorded by the TA software. Depending on the specifics of the sample, different steps of sample adsorption and desorption were also involved.

[2] = Water solubility at 20° C. determined by HPLC; assay type: physicochemical
Experimental: The solubility was determined as follows: a certain amount of the sample was weighed and the solvent was added thereto in portions with stirring or ultrasonication to accelerate dissolution; the amount of the consumed solvent was recorded once the sample was dissolved. […] A certain volume of the solution was taken, followed by filtration, concentration, dissolved with a certain volume of other suitable solvents and subjected to HPLC measurement to obtain accurate data of the solubility.

[3] = Solid-state stability test; assay type: physicochemical
Experimental: An appropriate amount of the drugs were placed in the surface dish, spread to a thickness of 3-5 mm, and exposed in high temperature, high temperature and high humidity, illumination and oxidation conditions for 10 days respectively, and the solid-state characterization was performed. The purity and the number of impurities 0.05%) of the samples for testing were determined by HPLC, and compared with the samples on day 0. The exposure conditions are:
High temperature (an oven with T=60° C.);
Illumination (25° C., a 4500±500 lx light incubator);
Oxidation (25° C., a closed container containing urea hydrogen peroxide).

Solution stability test = assay type: physicochemical
Experimental: About 15 mg of the sample was weighed accurately, dissolved with 25 mL of the test solvent (10% aqueous acetone solution, pH=4.0 B-R buffer solution, SGF, SIF) via ultrasound for 20 minutes. The solution was divided into four portions and placed in the clear glass vials, followed by sealing. The samples were exposed in different environments and sampled on day 0 and day 5. The purity of each sample was determined by HPLC, and the number of impurities greater than 0.05% was calculated and compared with the samples on day 0. The exposure environments are:
Room temperature and light-proof test, 25° C.; […]
Illumination experiment (4500±500 lx), 25° C.;
Oxidation experiment (3% v/v hydrogen peroxide), 25° C.

[4] = Comparison of absorption in rats after intragastric administration of free base and salt (plasma pharmacokinetics); assay type: in vivo, SD rats
Experimental: The blood sample was centrifuged at 8000 RPM for 5 minutes, followed by the isolation of the upper plasma. […] 200 μL of the supernatant was taken and centrifuged again for 10 minutes. 50 μL of the supernatant was injected in a 96-well plate. The plasma drug concentration was determined by LC/MS/MS, and the corresponding pharmacokinetic parameters were calculated.

[5] = 10 d, High temperature (oven, T=60° C.)
[6] = 10 d, High temperature and high humidity (40° C., 75% relative humidity)
[7] = 10 d, Illumination (25° C., 4500±500 lx)
[8] = 10 d, Oxidation (25° C., closed container with urea hydrogen peroxide)
[9] = 10% aqueous acetone solution, 0 d
[10] = 10% aqueous acetone solution, 0 d, impurities greater than 0.05%
[11] = 10% aqueous acetone solution, 5 d, High temperature
[12] = 10% aqueous acetone solution, 5 d, High temperature and high humidity
[13] = 10% aqueous acetone solution, 5 d, Illumination (4500±500 lx, 25° C.)
[14] = 10% aqueous acetone solution, 5 d, Oxidation (3% v/v hydrogen peroxide, 25° C.)
[15] = B-R Buffer solution (pH=4.0), 0 d, impurities greater than 0.05%
[16] = B-R Buffer solution (pH=4.0), 5 d, High temperature
[17] = B-R Buffer solution (pH=4.0), 5 d, High temperature and high humidity
[18] = B-R Buffer solution (pH=4.0), 5 d, Illumination (4500±500 lx, 25° C.)
[19] = B-R Buffer solution (pH=4.0), 5 d, Oxidation (3% v/v hydrogen peroxide, 25° C.)
[20] = SGF, 0 d, impurities greater than 0.05%
[21] = SGF, 5 d, High temperature and high humidity
[22] = SGF, 5 d, Illumination (4500±500 lx, 25° C.)
[23] = SGF, 5 d, Oxidation (3% v/v hydrogen peroxide, 25° C.)
[24] = SIF, 0 d, impurities greater than 0.05%
[25] = SIF, 5 d, High temperature and high humidity
[26] = SIF, 5 d, Illumination (4500±500 lx, 25° C.)
[27] = SIF, 5 d, Oxidation (3% v/v hydrogen peroxide, 25° C.)
[28] = SD rats, 20 μmol/kg, intragastric administration, plasma
[29] = rat, po, 20 umol/kg, SD rats, intragastric administration, plasma

## C=C(F)C(=O)Nc1cc2c(Nc3ccc(F)c(Cl)c3)ncnc2cc1OCCCN1CCOCC1.O=C(O)CC(O)(CC(=O)O)C(=O)O [crystal form 13 of the monocitrate]
[1]; relative humidity range of 20-80%
  weight change (water absorbed) by DVS: 0.2%

## C=C(F)C(=O)Nc1cc2c(Nc3ccc(F)c(Cl)c3)ncnc2cc1OCCCN1CCOCC1.O.O.O=C(O)CC(O)(CC(=O)O)C(=O)O [crystal form 5 of the dihydrate]
[1]; relative humidity range of 0-80%
  weight change (water absorbed) by DVS: 0.4%

## C=C(F)C(=O)Nc1cc2c(Nc3ccc(F)c(Cl)c3)ncnc2cc1OCCCN1CCOCC1.O=S(=O)(O)c1ccccc1
[2]
  water solubility at 20° C. determined by HPLC: 60.4 µg/mL
[3]; 0 d
  Number of impurities: 2
[3]; [5]
  Number of impurities: 2
[3]; [6]
  Number of impurities: 2
[3]; [7]
  Number of impurities: 2
[3]; [8]
  Number of impurities: 2
Solution stability test; [9]
  Purity: 98.2%
Solution stability test; [10]
  Number of impurities: 1
Solution stability test; [11]
  Number of impurities: 1
  Purity: 97.9%
Solution stability test; [12]
  Number of impurities: 3
Solution stability test; [13]
  Number of impurities: 1
  Purity: 97.6%
Solution stability test; [14]
  Number of impurities: 7
  Purity: 60.8%
Solution stability test; [15]
  Number of impurities: 2
Solution stability test; [16]
  Number of impurities: 3
  Purity: 97.2%
Solution stability test; [17]
  Number of impurities: 3
  Purity: 97.2%
Solution stability test; [18]
  Number of impurities: 1
Solution stability test; [19]
  Number of impurities: 12
  Purity: 38.1%
Solution stability test; [20]
  Number of impurities: 1
Solution stability test; SGF, 5 d, High temperature
  Number of impurities: 2
Solution stability test; [21]
  Number of impurities: 2
  Purity: 94.4%
Solution stability test; [22]
  Number of impurities: 1
Solution stability test; [23]
  Number of impurities: 3
  Purity: 81.7%
Solution stability test; SIF, 0 d
  Purity: 80.2%
Solution stability test; [24]
  Number of impurities: 2
Solution stability test; SIF, 5 d, High temperature
  Number of impurities: 1
  Purity: 58.7%
Solution stability test; [25]
  Number of impurities: 8
  Purity: 42.0%
Solution stability test; [26]
  Number of impurities: 9
  Purity: 10.0%
Solution stability test; [27]
  Purity: Complete
[4]; [28]
  AUC (0-t): 972.26 ± 291.88 µM·min
  MRT (0-T): 5.9522 ± 0.2533 h
  Tmax: 1.333 ± 0.5773 h
  t1/2: 5.0897 ± 2.1273 h
[4]; SD rats, 20 μmol/kg, intragastric administration, plasma, listed as monobenzenesulfonate
  Cmax: 2300 ± 470 nM
[1]
  hygroscopicity, in words: not easy to absorb moisture

## C=C(F)C(=O)Nc1cc2c(Nc3ccc(F)c(Cl)c3)ncnc2cc1OCCCN1CCOCC1.Cl.O
[2]
  water solubility at 20° C. determined by HPLC: 51.5 µg/mL
[4]; [28]
  AUC (0-t): 507.89 ± 66.81 µM·min
  MRT (0-T): 6.8127 ± 1.364 h
  Tmax: 1.167 ± 0.2887 h
  t1/2: 4.5078 ± 1.56 h
[4]; SD rats, 20 μmol/kg, intragastric administration, plasma, listed as monohydrochloride monohydrate
  Cmax: 980 ± 60 nM
[4]; rats, oral, same dose, free base and 6 salts
  AUC (0-t) and Cmax, comparison in words: relatively low

## C=C(F)C(=O)Nc1cc2c(Nc3ccc(F)c(Cl)c3)ncnc2cc1OCCCN1CCOCC1 [N-[4-(3-chloro-4-fluoroanilino)]-7-(3-morpholinopropoxy)-6-(2-fluoroacrylamido)-quinazoline, reference compound]
[3]; 0 d
  Number of impurities: 1
[3]; [5]
  Number of impurities: 2
  Purity: 99.0%
[3]; [6]
  Number of impurities: 3
  Purity: 99.0%
[3]; [7]
  Number of impurities: 2
  Purity: 99.0%
[3]; [8]
  Number of impurities: 3
  Purity: 99.0%
Solution stability test; [9]
  Purity: 93.4%
Solution stability test; [10]
  Number of impurities: 2
Solution stability test; [11]
  Number of impurities: 2
  Purity: 83.1%
Solution stability test; [12]
  Number of impurities: 6
  Purity: 13.3%
Solution stability test; [13]
  Number of impurities: 4
  Purity: 61.5%
Solution stability test; [14]
  Purity: Complete
Solution stability test; B-R Buffer solution (pH=4.0), 0 d
  Purity: 99.0%
Solution stability test; [15]
  Number of impurities: 1
Solution stability test; [16]
  Number of impurities: 1
  Purity: 99.0%
Solution stability test; [17]
  Number of impurities: 4
  Purity: 95.0%
Solution stability test; [18]
  Number of impurities: 1
  Purity: 99.0%
Solution stability test; [19]
  Number of impurities: 13
  Purity: 40.6%
Solution stability test; SGF, 0 d
  Purity: 99.0%
Solution stability test; [20]
  Number of impurities: 2
Solution stability test; SGF, 5 d, High temperature
  Number of impurities: 2
  Purity: 99.0%
Solution stability test; [21]
  Number of impurities: 4
  Purity: 94.2%
Solution stability test; [22]
  Number of impurities: 2
  Purity: 99.0%
Solution stability test; [23]
  Number of impurities: 3
  Purity: 84.3%
Solution stability test; SIF, 0 d
  Purity: 88.9%
Solution stability test; [24]
  Number of impurities: 1
Solution stability test; SIF, 5 d, High temperature
  Number of impurities: 2
  Purity: 85.6%
Solution stability test; [25]
  Number of impurities: 4
  Purity: 81.9%
Solution stability test; [26]
  Number of impurities: 18
  Purity: 50.0%
Solution stability test; [27]
  Number of impurities: 5
  Purity: 62.7%
[4]; rat, po, 20 umol/kg, SD rats, 20 μmol/kg, intragastric administration, plasma, read-out: AUC (0-t) (converted)
  AUC (0-t): 123 µM·min
[4]; rat, po, 20 umol/kg, SD rats, 20 μmol/kg, intragastric administration, plasma, read-out: MRT (0-T) (converted)
  MRT last: 6.66 h
[4]; rat, po, 20 umol/kg, SD rats, 20 μmol/kg, intragastric administration, plasma, read-out: Tmax (converted)
  Tmax: 1 h
[4]; [29]
  Cmax: 310 ± 70 nM
  half-life: 4.28 ± 1.77 h

Source: US10870627B2, “Salt of quinazoline derivative, preparation method therefor and application thereof” (SHANGHAI PHARMACEUTICALS HOLDING CO., LTD., priority 2016, dated 2020)
